Results published in US6822100B2 (Bristol-Myers Squibb Company, priority 2001, dated 2004).
pKi: −log10 of the molar value. Where a name gives a salt, the structure may show the parent alone. Read-outs that look alike come from different tables or passages of the source.

Columns and labels:
[1] = biological target: T1, recombinant human dopamine D2L receptors (Homo sapiens, UniProt P14416); experiment: Dopamine Binding Assay; conditions: HEK-D2L cell membranes, 150 pM [3H]-spiperone, Cheng and Prusoff
T1 construct: expressed in transfected cells; host or cells: HEK-293 (HEK-D2L), membrane homogenates
T1 sequence (P14416 whole entry): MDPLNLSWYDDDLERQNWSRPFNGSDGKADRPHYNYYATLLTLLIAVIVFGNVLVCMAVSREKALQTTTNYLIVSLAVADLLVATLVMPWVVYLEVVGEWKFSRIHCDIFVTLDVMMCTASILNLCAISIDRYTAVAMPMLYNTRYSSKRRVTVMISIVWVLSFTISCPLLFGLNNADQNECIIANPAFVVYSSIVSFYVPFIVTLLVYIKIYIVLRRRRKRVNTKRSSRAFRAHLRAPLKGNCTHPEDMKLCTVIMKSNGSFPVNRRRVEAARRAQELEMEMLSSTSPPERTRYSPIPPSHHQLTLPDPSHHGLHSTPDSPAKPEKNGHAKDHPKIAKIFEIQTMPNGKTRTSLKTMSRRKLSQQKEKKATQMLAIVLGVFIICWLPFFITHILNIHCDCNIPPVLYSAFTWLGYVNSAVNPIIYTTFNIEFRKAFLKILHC
Experimental: HEK-293 cells that stably express recombinant human dopamine D2L receptors (HEK-D2L cells) were grown at 37° C. in 5% CO2 as a monolayer in medium consisting of EMEM supplemented with 10% fetal bovine serum and G418 sulfate (500 μg/ml). To prepare membranes for radioligand binding experiments, cells were rinsed twice with phosphate-buffered saline (138 mM NaCl, 4.1 mM KCl, 5.1 mM Na2PO4, 1.5 mM KH2PO2 11.1 mM glucose, pH 7.4), and incubated for 5-10 min. at 4° C. in hypotonic lysis buffer consisting of 10 mM Tris (pH 7.4) and 5 mM EDTA. Cells were transferred from plates to polypropylene tubes (16×100 mm), homogenized and centrifuged at 32,000×g for 20 min. Following centrifugation, pellets were resuspended by homogenization in buffer consisting of 50 mM Tris (pH 7.7 at 25° C.) and 1 mM EDTA. Homogenates were stored at −80° C. until needed. On the day of an experiment, homogenates were thawed then centrifuged at 32,000×g for 20 min. Following centrifugation, supernatants were discarded and pellets were resuspended in assay buffer consisting of 50 mM Tris (pH 7.4 at 25° C.), 1 mM EDTA and 6 mM MgCl2. Membrane homogenates (˜5 μg) were incubated with 150 pM [^3H]-spiperone (Amersham Life Science) and increasing concentrations of test compounds for 1.5 hr at 22° C. in a total volume of 400 μl. Reactions were stopped by addition of ice-cold assay buffer and filtration over glass fiber filters (Whatman GFB, pre-soaked in 0.05% polyethylenimine) using a microtitre format Brandel cell harvester. Filters were washed with 3 ml of ice-cold assay buffer. Non-specific binding was defined with 2 μM (+)butaclamol. Ki values were calculated using the method of Cheng and Prusoff (1973). Protein concentrations were determined by the method of Bradford (1976) with BSA as a standard.

[2] = biological target: T2, human serotonin transporters (Homo sapiens, UniProt P31645); experiment: Serotonin Transporter Binding Assay; conditions: HEK-hSERT cell membranes, 1 nM [3H]-citalopram, Cheng and Prusoff; for pKi: read-out: SERT Ki; for Ki: SERT Ki (nM)
T2 construct: expressed in transfected cells; host or cells: HEK-293 (HEK-hSERT), membrane homogenates
T2 sequence (P31645 whole entry): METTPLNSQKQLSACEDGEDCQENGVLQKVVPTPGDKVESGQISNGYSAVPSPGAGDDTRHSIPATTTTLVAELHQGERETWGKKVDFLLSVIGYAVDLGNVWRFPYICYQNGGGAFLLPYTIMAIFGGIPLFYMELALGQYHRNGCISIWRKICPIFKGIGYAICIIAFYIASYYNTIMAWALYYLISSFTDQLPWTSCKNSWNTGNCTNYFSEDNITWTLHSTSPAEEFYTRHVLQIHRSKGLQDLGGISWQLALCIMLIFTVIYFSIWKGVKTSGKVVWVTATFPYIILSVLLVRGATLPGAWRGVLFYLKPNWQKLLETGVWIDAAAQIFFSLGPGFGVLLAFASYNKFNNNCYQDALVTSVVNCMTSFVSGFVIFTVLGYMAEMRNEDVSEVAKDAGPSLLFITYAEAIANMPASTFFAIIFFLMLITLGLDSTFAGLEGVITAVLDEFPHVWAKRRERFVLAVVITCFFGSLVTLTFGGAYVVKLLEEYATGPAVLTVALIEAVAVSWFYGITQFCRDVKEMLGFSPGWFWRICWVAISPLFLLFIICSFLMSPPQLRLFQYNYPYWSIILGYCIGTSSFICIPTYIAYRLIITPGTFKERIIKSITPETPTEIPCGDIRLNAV
Experimental: HEK-293 cells that stably express human serotonin transporters (HEK-hSERT cells) were grown at 37° C. in 5% CO2 as a monolayer in medium consisting of EMEM supplemented with 10% fetal bovine serum and G418 sulfate (500 μg/ml). To prepare membranes for radioligand binding experiments, cells were rinsed twice with phosphate-buffered saline (138 mM NaCl, 4.1 mM KCl, 5.1 mM Na2PO4, 1.5 mM […], 11.1 mM glucose, pH 7.4). Cells were transferred from plates to polypropylene tubes (16×100 mm), centrifuged at 1,200×g for 5 min and were frozen at −80° C. until assay. Following centrifugation, pellets were resuspended by homogenization in buffer consisting of 50 mM Tris (pH 7.7 at 25° C.), 120 mM NaCl and 5 mM KCl and then centrifuged at 32,000×g for 10 min. Following centrifugation, supernatants were discarded and pellets were resuspended in buffer consisting of 50 mM Tris (pH 7.4 at 25° C.), 150 mM NaCl and 5 mM KCl. Membrane homogenates (200 μl/plate) were incubated with 1 nM [^3H]-citalopram (specific activity=85 Ci/mmol) and increasing concentrations of test compounds for 1 hr at 25° C. in a total volume of 250 μl. The assay buffer consisted of 50 mM Tris (pH 7.4 at 25° C.), 120 mM NaCl and 5 mM KCl (pH 7.4 with conc. HCl). Plates were incubated for 1 hr at 25° C., then filtered through 0.5% PEI treated Whatman GF/B filters using a Brandel cell harvester. Filters were washed three times with 3 ml of ice-cold tris wash buffer. Non-specific binding was defined with 10 μM fluoxetine. Amount of radioligand bound in the presence and absence of competitor was analyzed by plotting (−)log drug concentration versus the amount of radioligand specifically bound. The midpoint of the displacement curve (IC50, nM), signifies the potency. Ki values were calculated using the method of Cheng and Prusoff (1973).

Row | SMILES | pKi [1] | pKi [2] | Ki [2] [nM]
1 | CNCC1CC1c1c[nH]c2ccc(C#N)cc12 (racemic) [Example 119, trans-2-[5-Cyanoindol-3-yl]-1-(N-methylaminomethyl)cyclopropane] | 6.00 to 7.00 | 8.00 to 9.00 | 
2 | CC(C1CC1c1c[nH]c2ccc(C#N)cc12)N(C)C (racemic) [Example 121, trans-3-[2-(1-Dimethylamino-ethyl)-cyclopropyl]-1H-indole-5-carbonitrile] | < 6.00 |  | < 1
3 | CCN(CC)C(C)C1CC1c1c[nH]c2ccc(C#N)cc12 (racemic) [Example 123, trans-3-[2-(1-Diethylamino-ethyl)-cyclopropyl]-1H-indole-5-carbonitrile] | < 6.00 |  | 10 to 100
4 | CNC(C)C1CC1c1c[nH]c2ccc(C#N)cc12 (racemic) [Example 125, trans-3-[2-(1-Methylamino-ethyl)-cyclopropyl]-1H-indole-5-carbonitrile] | 6.00 to 7.00 | 8.00 to 9.00 | 
5 | CCNC(C)C1CC1c1c[nH]c2ccc(C#N)cc12 (racemic) [Example 126, trans-3-[2-(1-Ethylamino-ethyl)-cyclopropyl]-1H-indole-5-carbonitrile] | 6.00 to 7.00 | 7.00 to 8.00 | 
6 | CNC[C@H]1C[C@@H]1c1c[nH]c2ccc(C(F)(F)F)cc12 (racemic) [Example 154, Methyl-[2-(5-trifluoromethyl-1H-indol-3-yl)-cyclopropylmethyl]-amine] |  | 7.00 to 8.00 | 
7 | CNC[C@H]1C[C@@H]1c1c[nH]c2cc(C(F)(F)F)ccc12 (racemic) [Example 155, Methyl-[2-(6-trifluoromethyl-1H-indol-3-yl)-cyclopropylmethyl]-amine] | < 6.00 |  | 10 to 100
8 | CCNC[C@H]1C[C@@H]1c1c[nH]c2cc(C(F)(F)F)ccc12 (racemic) [Example 156, Ethyl-[2-(6-trifluoromethyl-1H-indol-3-yl)-cyclopropylmethyl]-amine] |  | 6.00 to 7.00 | 
9 | CN(Cc1ccccc1)C[C@H]1C[C@@H]1c1c[nH]c2cc(C(F)(F)F)ccc12 (racemic) [Example 157, Benzyl-methyl-[2-(6-trifluoromethyl-1H-indol-3-yl)-cyclopropylmethyl]-amine] |  | 6.00 to 7.00 | 
10 | CNC[C@H]1C[C@@H]1c1c[nH]c2cc(C#N)ccc12 (racemic) [Example 158, 3-(2-Methylaminomethyl-cyclopropyl)-1H-indole-6-carbonitrile] | < 6.00 |  | 10 to 100
11 | CCNC[C@H]1C[C@@H]1c1c[nH]c2cc(C#N)ccc12 (racemic) [Example 159, 3-(2-Ethylaminomethyl-cyclopropyl)-1H-indole-6-carbonitrile] |  | 6.00 to 7.00 | 
12 | CCN(CC)C[C@H]1C[C@@H]1c1c[nH]c2cc(C#N)ccc12 (racemic) [Example 160, 3-(2-Diethylaminomethyl-cyclopropyl)-1H-indole-6-carbonitrile] | < 6.00 |  | 10 to 100
13 | CCN(C)C[C@H]1C[C@@H]1c1c[nH]c2cc(C#N)ccc12 (racemic) [Example 161, 3-{2-[(Ethyl-methyl-amino)-methyl]-cyclopropyl}-1H-indole-6-carbonitrile] |  | 6.00 to 7.00 | 
14 | CN(Cc1ccccc1)C[C@H]1C[C@@H]1c1c[nH]c2cc(C#N)ccc12 (racemic) [Example 162, 3-{2-[(Benzyl-methyl-amino)-methyl]-cyclopropyl}-1H-indole-6-carbonitrile] | 6.00 to 7.00 | 7.00 to 8.00 | 
15 | CN(Cc1ccccc1)C[C@@H]1C[C@H]1c1c[nH]c2ccc(C#N)cc12 (relative stereo) [Example 3, Trans-2-[5-Cyanoindol-3-yl]-1-[N,N-methyl-benzylaminomethyl]-cyclopropane] | 6.00 to 7.00 | > 9.00 | 
16 | N#Cc1ccc2[nH]cc([C@@H]3C[C@H]3CNCc3ccccc3)c2c1 (relative stereo) [Example 7, trans-1-(N-Benzlyaminomethyl)-2-[5-cyanoindol-3-yl]-cyclopropane] | 6.00 to 7.00 | 8.00 to 9.00 | 
17 | CN(C)CC1CC1c1csc2ccccc12 (single isomer, unassigned; (-)) [Example 190A, (−)-(2-Benzo[b]thiophen-3-yl-cyclopropylmethyl)-dimethyl-amine] |  | 6.00 to 7.00 | 

Row | SMILES | pKi [1] | pKi [2] | Ki [2] [nM]
18 | CN(C)CC1CC1c1ccc2[nH]cc(Br)c2c1 (centres unmarked) [Example 150, N,N-dimethyl-2-(3-bromoindol-5-yl)cycloprop-1-yl methylamine] |  | 7.00 to 8.00 | 
19 | CN(C)CC1CC1c1ccc2[nH]cc(C#N)c2c1 (centres unmarked) [Example 151, 5-(2-Dimethylaminomethyl-cyclopropyl)-1H-indole-3-carbonitrile] |  | 8.00 to 9.00 | 
20 | CCN(C)CC1CC1c1n[nH]c2ccc(C#N)cc12 (centres unmarked) [Example 164, 3-{2-[(Ethyl-methyl-amino)-methyl]-cyclopropyl}-1H-indazole-5-carbonitrile] |  | 6.00 to 7.00 | 
21 | CCN(CC)CC1CC1c1n[nH]c2ccc(C#N)cc12 (centres unmarked) [Example 165, 3-(2-Diethylaminomethyl-cyclopropyl)-1H-indazole-5-carbonitrile] |  | 6.00 to 7.00 | 
22 | N#Cc1ccc2[nH]nc(C3CC3CN3CCCC3)c2c1 (centres unmarked) [Example 166, 3-(2-Pyrrolidin-1-ylmethyl-cyclopropyl)-1H-indazole-5-carbonitrile] |  | 6.00 to 7.00 | 
23 | CNCC1CC1c1csc2ccccc12 (centres unmarked) [Example 168, (2-Benzo[b]thiophen-3-yl-cyclopropylmethyl)-methyl-amine] |  | 7.00 to 8.00 | 
24 | CCN(C)CC1CC1c1csc2ccccc12 (centres unmarked) [Example 170, (2-Benzo[b]thiophen-3-yl-cyclopropylmethyl)-ethyl-methyl-amine] |  | 6.00 to 7.00 | 
25 | CCN(CC)CC1CC1c1csc2ccccc12 (centres unmarked) [Example 171, (2-Benzo[b]thiophen-3-yl-cyclopropylmethyl)-diethyl-amine] |  | 6.00 to 7.00 | 
26 | c1ccc2c(C3CC3CN3CCCC3)csc2c1 (centres unmarked) [Example 172, 1-(2-Benzo[b]thiophen-3-yl-cyclopropylmethyl)-pyrrolidine] |  | 6.00 to 7.00 | 
27 | CCN(CC)CCCC1CC1c1c[nH]c2ccc(C#N)cc12 (stereo not drawn) [Example 177, Trans-2-[5-cyanoindol-3-yl]1-(3-(N,N-diethylamino)propyl)cyclopropane] |  | 7.00 to 8.00 | 
28 | C[N+](C)(C)C[C@H]1C[C@@H]1c1c[nH]c2ccc(C#N)cc12 [Example 187, S,S-Trans-2-[5-Cyanoindol-3-yl]-1-(trimethylammoniummethyl)cyclopropane trifluoroacetate] |  | > 9.00 | 
29 | CN(C)C[C@H]1C[C@@H]1c1cn(C)c2ccc(C#N)cc12 [Example 188] |  | 8.00 to 9.00 | 
30 | CCn1cc([C@H]2C[C@@H]2CN(C)C)c2cc(C#N)ccc21 [Example 189] |  | 8.00 to 9.00 | 
31 | CN(C)CC1CC1c1ccc2cc[nH]c2c1 (centres unmarked) [Example 191, [2-(1H-Indol-6-yl)-cyclopropylmethyl]-dimethyl-amine] |  | 7.00 to 8.00 | 
32 | CN(C)CC1CC1c1ccc2c(C#N)c[nH]c2c1 (centres unmarked) [Example 192, 6-(2-Dimethylaminomethyl-cyclopropyl)-1H-indole-3-carbonitrile] |  | 8.00 to 9.00 | 
33 | CN(C)CCC1CC1c1c[nH]c2ccc(C#N)cc12 (centres unmarked) [Example 193, 3-[2-(2-Dimethylamino-ethyl)-cyclopropyl]-1H-indole-5-carbonitrile] |  | 8.00 to 9.00 | 
